Measured values taken from US10517863B2, “Trilobine and its natural analogs for use as a drug” (PIERRE FABRE MEDICAMENT, priority 2015, dated 2019).

How the values were obtained:
Assay type in all cases: cell-based, human
[1] = test system: CMV promoter in KG-1 Luc cells; assay: CMV promoter analysis by NOMe-Seq: DNA methylation and nucleosome occupancy; settings: at 5 μM, 24 h
Experimental: Using the Nucleosome Occupancy and Methylome Sequencing (NOMe-Seq) technique, the methylation status of the CMV promoter and the position of the nucleosomes on such promoter were both analysed.
NOMe-seq is a modified version of the methylation-dependent single promoter assay described by Miranda et al. (Curr Protoc Mol Biol. 2010 21.17.1-16) and the methylase-based DNA assay was performed as previously described with minor modifications (Hochedlinger K, Plath K 2009; Sharma et al. 2010, You et al. 2011, Kelly et al. 2012). After nuclei extraction, GpC methyltransferase (M.CviPI; New England Biolabs) reactions were done in M.CviPI reaction buffer. GpC methyltransferase treatment was followed by DNA extraction, sodium bisulfite conversion, PCR amplification of the region of interest, cloning, and sequencing of individual clones to reveal the structure of single replicas as functional units. After treatment with the compounds or with DMSO, KG-1 Luc cells were centrifuged for 5 min at 500×g. Cell pellets were washed in ice-cold PBS, resuspended in 1 mL of ice-cold nuclei buffer [10 mM Tris (pH 7.4), 10 mM NaCl, 3 mM MgCl2, 0.1 mM EDTA, and 0.5% Nonidet P-40, plus protease inhibitors] per 2×10^6 cells, and incubated on ice for 10 min. […]

[2] = test system: P16 expression in colon cancer cells HCT116; assay: P16 reexpression by RT-qPCR; settings: at 100 nM, at 3 days
[3] = test system: luciferase reporter under the control of a methylated CMV promoter in leukemia KG-1 cells; assay: CMV-luc reexpression (luciferase reporter) in KG-1 cells; settings: for Reactivation fold of luciferase gene reporter in KG-1 CMV-Luc: 24 hour incubation, fold induction vs DMSO, mean ± standard error
Experimental: Aiming at identifying new DNMT inhibitors, plant extract samples were tested for their ability to reactivate gene expression upon use of an integrated luciferase reporter system under the control of a methylated CMV promoter in leukemia KG-1 cells which inhibits its expression (CMV-luc assay reported in following Table). […] The extract was fractionated by preparative HPLC. Identification of the active components was accomplished by HRMS and NMR spectroscopy. The pure compounds isolated from the extract through bio-guided fractionation are trilobine and bisbenzylisoquinoline analogue products. The active compounds were then further evaluated for their ability to inhibit DNMTs in vitro and DNA methylation in cancer cells.
KG-1 cells were stably transfected with the firefly luciferase reporter gene (luc+ from pGL3; Promega) under the control of the cytomegalovirus (CMV) promoter (from pEGFP-N1; Clontech Laboratories Inc.) partially methylated (50%). 20,000 cells per well were seeded in a 96-well plate. After 24 hour incubation in the presence of the test compound or solvant (DMSO), the induction of the promoter was measured by quantification of the luciferase signal with the Brite-lite assay system (PerkinElmer) according to the manufacturer's protocol. The luminescence was measured on an EnVision multilabel plate reader (PerkinElmer), and the data are expressed as the fold induction as compared with the DMSO control. The mean of three experiments and the standard error is reported.

COc1ccc2cc1Oc1ccc(cc1)C[C@@H]1NCCc3cc(OC)c4c(c31)Oc1cc3c(cc1O4)CCN(C)[C@H]3C2 [Compound 1, Trilobine]
Chromatin accessibility, KG1 CMV-Luc model [1]: 1.9 ± 0.1
DNA demethylation, KG1 CMV-Luc model [1]: −37 ± 8%
Rexpression (RT qPCR) P16/HCT116 expression fold to non-treated cells [2]: 5.0 ± 2.14 fold
Reactivation fold of luciferase gene reporter in KG-1 CMV-Luc ([3]; 0.1 μM): 1.1 ± 0.1 fold
Reactivation fold of luciferase gene reporter in KG-1 CMV-Luc ([3]; 0.32 μM): 1.9 ± 1.2 fold
Reactivation fold of luciferase gene reporter in KG-1 CMV-Luc ([3]; 0.5 μM): 1.6 ± 0.8 fold
Reactivation fold of luciferase gene reporter in KG-1 CMV-Luc ([3]; 1 μM): 2.6 ± 1.4 fold
Reactivation fold of luciferase gene reporter in KG-1 CMV-Luc ([3]; 3.2 μM): 3.5 ± 1.1 fold
Reactivation fold of luciferase gene reporter in KG-1 CMV-Luc ([3]; 5 μM): 6.4 ± 0.1 fold
FI-24 h, KG1 CMV-Luc model ([3]; at 5 μM, 24 h): 5.8 ± 0.6
